Data as given in article PMC9413144, “Similar 5F-APINACA Metabolism between CD-1 Mouse and Human Liver Microsomes Involves Different P450 Cytochromes” (Metabolites, 2022).

Columns and labels:
[1] = test system: CD-1 mouse liver microsomes; test: Steady-state kinetics for 5F-APINACA metabolism by CD-1 mouse liver microsomes; format: in vitro ADME
Method: (§1) The in vitro 5F-APINACA analyses relied on reactions with human liver microsomes 150 (HLM150) as a model for the average adult human liver and CD-1 mouse liver microsomes as the standard for SCB studies. In a 96-half-well microplate, reaction conditions included human or mouse liver microsomes in 100 mM potassium phosphate buffer pH 7.4, 0.1% methanol (co-solvent), and 5F-APINACA concentrations ranging from 0 to 250 µM. The microplates were preincubated for 15 min at 37 °C with shaking at 350 rpm using a BMG Labtech THERMOstar incubator (Ortenberg, Germany). The addition of an NADPH-regenerating system (4 U/mL glucose-6-phosphate dehydrogenase, 12 mM glucose 6-phosphate, 12 mM MgCl2, 4 mM NADP^+) initiated the reaction. Reactions were quenched by adding an equal volume of ice-cold acetonitrile containing an internal standard (2 μM acenocoumarol final). Samples were chilled on ice for 10 min to optimize precipitation of proteins in phosphate buffer. After 3500 rpm centrifugation at 4 °C for 15 min using a Sorvall ST 16R centrifuge (Thermo Scientific; Waltham, MA, USA), the supernatant was transferred to HPLC vials for HPLC analyses. Standards for metabolite quantifications were prepared with human or mouse liver microsomes in 100 mM potassium phosphate buffer pH 7.4, 0.1% methanol (co-solvent), and 5OH-APINACA concentrations ranging from 0 to 15 µM. The microplates were preincubated for 15 min at 37 °C with shaking at 350 rpm. Reactions were initiated upon addition of the NADPH-regenerating system or 100 mM potassium phosphate as a negative control. For kinetic studies, initial control experiments were carried out to determine the lowest protein concentration and optimal reaction time within the linear response range for all observed metabolites reflecting steady-state conditions. Each set of steady-state reactions were performed at least in triplicate and replicated two times at a minimum. The composition of reactions was determined by liquid chromatographic analysis involving detection of analytes via UV/visible absorbance and mass spectroscopy (Section 2.5).
(§2) We employed explicit equations and numerical methods to model kinetic profiles. In the first case, metabolite levels were used to calculate initial reaction rates for plotting against substrate concentration with GraphPad Prism 9.2 from GraphPad Software, Inc. (San Diego, CA, USA). […] For the numerical methods, ordinary differential equations (ODEs) describing single-substrate (ES) and multi-substrate (ESS) binding kinetics were initially used to fit the models to the primary metabolite formation datasets. The AICc was used to determine the most appropriate model for the same dataset. Predicted parameter estimates from the most appropriate model were then used as initial parameter estimates for a variety of enzyme–substrate–sequential metabolism (ESP1P2P3) models. Schemes included fast- and slow-release rates of metabolite P2 from the enzyme site, either after the first binding event, the second binding event, or both events. A final best-fit model was selected based on AICc values, weighted residuals, and parameter estimate errors. For comparison of all multi-substrate-sequential metabolism models, including the final integrated model, all metabolite data were used simultaneously for model fitting. All association rate constants were fixed at 270 μM^−1 min^−1. When any rate constant within the model had to be held constant, a sensitivity analysis was performed over a range of values to ensure the validity of the results. Based on preliminary model fitting attempts, consistent enzyme kinetic schemes were developed for fitting to both human and CD-1 mouse liver microsomal reaction datasets. Mathematica version 12.3 (Wolfram Research, Champaign, IL, USA) was used for model fitting. The ODEs were numerically solved with NDSolve to provide interpolated functions of each enzyme species. […]

[2] = test system: pooled human liver microsomes (HLM150); test: Steady-state kinetics for 5F-APINACA metabolism by pooled human liver microsomes; format: in vitro ADME
Method: as §1, §2

[3] = test system: human CYPs in human liver microsomes; test: Chemical inhibitor phenotyping of 5F-APINACA reactions, human liver microsomes; format: in vitro ADME; details: 25 µM 5F-APINACA; for effect of inhibitor on formation of 5F-APINACA metabolites: 0.1 mg/mL HLM, 1000 µM ABT, 1 µM ketoconazole
Method: (§3) Inhibitor phenotyping experiments were carried out to qualitatively identify probable P450 isozymes catalyzing 5F-APINACA metabolic pathways present in our mouse and human liver microsome studies. Reactions contained 0.1 mg/mL protein (MLM or HLM), 25 µM 5F-APINACA, specific CYP inhibitors, 0.25% methanol, 1% acetonitrile, 1.0 mM NADPH-regenerating system, and 100 mM phosphate buffer, pH 7.4. […] For each experiment, the following were included as final concentrations: 10 µM furafylline for CYP1A2, 2 µM tranylcypromine (TCP) for CYP2A6, 3 µM ticlopidine (TIC) for CYP2B6, 16 µM montelukast (MTK) for CYP2C8, 10 µM sulfaphenazole (SPA) for CYP2C9, 16 µM (+)-N-3-benzylnirvanol (NBZ) for CYP2C19, 2 µM quinidine (QND) for CYP2D6, 30 µM 4-methylpyrazole (4MP) for CYP2E1, 1 µM ketoconazole (KCZ) for CYP3A4, and 1000 µM ABT for all CYPs. Each inhibitor stock solution (except FUR) was prepared in potassium phosphate buffer pH 7.4 with 1% acetonitrile (final) as a co-solvent. After a preincubation period of 15 min with shaking, the reactions were initiated with the addition of a NADPH-regenerating system and shaken. For FUR, the inhibitor was prepared in methanol and a microsomal reaction was carried out at 10 µM for 10 min prior to addition of 5F-APINACA. After 30 min, all reactions were quenched, processed, and analyzed by HPLC as previously described. The resultant values were normalized to reaction rates observed in absence of inhibitors to yield a percent inhibition value.
Sample reactions were analyzed to quantitate metabolites by absorbance. Analytes were separated on a Waters XBridge BEH C18 3.5 μM column (4.6 mm × 100 mm) using an Agilent 1100 series HPLC instrument equipped with a VWD detector (280 nm). The mobile phase consisted of solvent A (10% solvent B, 90% water) and solvent B (0.1% formic acid/acetonitrile). A gradient method started at 80% solvent A for the first minute, then decreased to 70% for the next 6 min. […] Parent drug and metabolite responses were normalized to the internal standard acenocoumarol and quantitated using a standard curve generated with 5OH-APINACA. The absorbance response corresponds to the indazole ring, which remained unmodified in these reactions, so that the relative absorbance response for all analytes were approximately the same, making inference for quantitation purposes possible.
(§4) Various statistical approaches were employed among the experimental studies to identify the most likely models for explaining the data or establish the significance of the findings. For the explicit kinetic models, the best-fit kinetic model and corresponding constants were determined using the extra sum-of-squares F test. […]

[4] = test system: mouse Cyps in CD-1 mouse liver microsomes; test: Chemical inhibitor phenotyping of 5F-APINACA reactions, CD-1 mouse liver microsomes; format: in vitro ADME; details: 25 µM 5F-APINACA
Method: as §3, with “For FUR, the inhibitor was prepared in methanol and a microsomal reaction was carried out at 10 µM for 10 min prior to addition of 5F-APINACA.” left out, “The resultant values were normalized to reaction rates observed in absence of inhibitors to yield a percent inhibition value.” left out
Sample reactions were analyzed to quantitate metabolites by absorbance. […] Parent drug and metabolite responses were normalized to the internal standard acenocoumarol and quantitated using a standard curve generated with 5OH-APINACA. The absorbance response corresponds to the indazole ring, which remained unmodified in these reactions, so that the relative absorbance response for all analytes were approximately the same, making inference for quantitation purposes possible.
as §4

mice = test system: mice; set-up: method as in PMID 30420360, PMID 32413436; details: with 1-aminobenzotriazole (ABT); cited from earlier work
[5] = formation of the metabolite from 5F-APINACA, parentheses 95% confidence interval
[6] = global fit to differential rate equations, calculated from micro-rate constants, parentheses standard error
[7] = global fit to differential rate equations, parentheses standard error
[8] = global fit to differential rate equations, second substrate binding (ESS), parentheses standard error
[9] = Combined adamantyl hydroxylation pathway, parentheses 95% confidence interval

Compound: O=C(NC12CC3CC(CC(C3)C1)C2)c1nn(CCCCCO)c2ccccc12 [5OH-APINACA]
- Vmax [1, 5]: 690 (650–730) pmol min^−1 mg protein^−1
- h (Hill coefficient) [1, 5]: 1.4 (1.0–1.8)
- Km1 [1, 6]: ((k2 + k3 + k4)/k1) 3.75 (0.21) µM
- kcat1/Km1 [1, 7]: 0.238 (0.017) mL min^−1 nmol^−1
- kcat1 ([1]; global fit to differential rate equations, rates normalized to total CYP (0.67 μM), parentheses standard error): k3 0.89 (0.04) min^−1
- Km2 [1, 8]: ((k6 + k7 + k8)/k5) 122 (6) µM
- kcat2 [1, 8]: k7 1.17 (0.05) min^−1
- kcat2/Km2 [1, 8]: 0.0096 (0.0006) mL min^−1 nmol^−1
- Vmax ([2]; formation of the metabolite from 5F-APINACA, 0.1 mg/mL protein, parentheses 95% confidence interval): 465 (446–485) pmol min^−1 mg protein^−1
- Km1 [2, 6]: ((k2 + k3 + k4)/k1) 5.69 (0.35) µM
- kcat1/Km1 [2, 7]: 0.193 (0.015) mL min^−1 nmol^−1
- kcat1 ([2]; global fit to differential rate equations, rates normalized to total CYP (0.38 μM), parentheses standard error): k3 1.10 (0.35) min^−1
- Km2 [2, 8]: ((k6 + k7 + k8)/k5) 181 (10) µM
- kcat2 [2, 8]: k7 1.23 (0.1) min^−1
- kcat2/Km2 [2, 8]: 0.0065 (0.0013) mL min^−1 nmol^−1

Compound: Nn1nnc2ccccc21 [ABT, 1-aminobenzotriazole, reference compound]
- effect of inhibitor on formation of 5F-APINACA metabolites [3]: completely blocked the formation of all metabolites

Compound: CC(=O)N1CCN(c2ccc(OCC3COC(Cn4ccnc4)(c4ccc(Cl)cc4Cl)O3)cc2)CC1 (centres unmarked) [ketoconazole, reference compound]
- effect of inhibitor on formation of 5F-APINACA metabolites [3]: inhibition of these pathways

Compound: N-(1-adamantyl)-1-(5-pentyl)-1H-indazole-3-carboxamide [5F-APINACA]
- contribution of CYPs to metabolism ([4]; CD-1 microsomes): sole role of CYPs
- dominant isozyme carrying out metabolic reactions ([4]; human CYP inhibitors): Cyp3a11
- other dominant contributors to adamantyl hydroxylation, but minor contributors to oxidative defluorination ([4]; implicated by inhibitor for CYP2C19): Cyp2c37, Cyp2c50, and Cyp2c54
- dominant isozyme for both pathways ([3]; chemical inhibitor phenotyping): CYP3A4
- isozymes with minor contributions to metabolism ([3]; chemical inhibitor phenotyping): CYP2C8, 2C19, and 2D6
- Ki (substrate inhibition) [1, 9]: 220 (74–1300) µM
- Vmax [1, 9]: 465 (330–730) pmol min^−1 mg protein^−1
- Km ([1]; Combined adamantyl hydroxylation pathway, parentheses 95% confidence interval, read-out: Km or Kh): 3.8 µM
- Ki (substrate inhibition) [2, 9]: 300 (150–790) µM
- Km [2, 9]: 3.3 µM
- Vmax [2, 9]: 400 (330–510) pmol min^−1 mg protein^−1
- hypothermia in mice on suppression of metabolism by pan-CYP inhibitor ABT (mice): increased hypothermia
